Consider one molecule from patent publication US11160767B2, “4,4′-trans-dihydroxystilbene for use in treating cancer” (The George Washington University, a Congressionally …, priority 2017, dated 2021).

Experiment [1] relates to SKOV3-CP7. Briefly: DHS and cisplatin, SKOV3-CP7 cells. The format is cell-based, human. The text has this: The effect of DHS on a human SKOV3 ovarian cell line and its cisplatin-resistant subline, SKOV3/CP7, was investigated.
The subject of experiment [2] is And-1 protein. Put plainly: And-1 protein level by Western blot. The format is cell-based. Conditions: U2OS and HCT116 cells. Here is the method: (§1) Western blot analysis. Compound-treated cells were harvested and lysed. Protein extracts were subjected to electrophoresis in a SDS-polyacrylamide gel. The resolved proteins were transferred onto polyvinylidene difluoride membranes (Amersham Biosciences, Piscataway, N.J., US). After the blocking step, membranes were incubated with primary IgG antibodies, washed, and then incubated with horseradish peroxidase-conjugated anti-rabbit IgG or anti-mouse IgG secondary antibodies. Western blot signals were visualized by chemiluminescence using SuperSignal West Pico chemiluminescence reagent (Pierce, Rockford, Ill., US).
The effect of DHS treatment on And-1, RRM1, and RRM2 expression was investigated.

The test system of experiment [3] is cancer cell lines. Put plainly: NCI Development Therapeutics Program cell line growth. Format: cell-based. Particulars: NCI DTP cell lines. As for the experimental part: To confirm the cell killing effect of DHS, a clonogenic colony formation assay was conducted. […] The effect of DHS on growth of cancer cell lines was analyzed using The NCI Development Therapeutics Program (DTP).

Experiment [4] concerns U2OS. Briefly: In vitro cytotoxicity (SRB assay), U2OS. The format is cell-based. Conditions: Homo sapiens, 72 hours. As for the experimental part:
(§2) Cell lines and cell culture. HCT116, U205, PANC-1, MDA-231 cell lines were purchased from the American Type Culture Collection (Rockville, Md., US). Cells were cultured in the DMEM medium (Lonza, Basel, Switzerland) containing 10% fetal bovine serum (Gibco, Grand Island, N.Y., US), 100 Units/ml penicillin, 100 Units/mL streptomycin, […] L-glutamine (Gibco, Grand Island, N.Y., US) at 37° C. in a humidified atmosphere with 5% CO2.
(§3) In vitro cytotoxicity assays. […] SRB assay (Vichai and Kirtikara, 2006) was performed and the absorbance at 510 nm was read with a plate reader. The proliferation rate was calculated according to the Manufacturer's instruction. The IC50 value for each compound was determined from dose-effect relationship using the CompuSyn software (version 1.0.1; CompuSyn, Inc, Paramus, N.J.) (Chou, 2006). Cell proliferating doubling time was monitored over a period of 72 hours.

Experiment [5] deals with RPK-9 cells. Briefly: Combination DHS and gemcitabine, CI, RPK-9 cells. Format: cell-based, human. Conditions: RPK-9, in vitro, 10 μM DHS. Here is the method: (§4) In vitro cytotoxicity assays. Cells growing in the Log phase were treated with various compounds at different concentrations (generally 0.137 to 100 μM) for 72 hours at 37° C. SRB assay (Vichai and Kirtikara, 2006) was performed and the absorbance at 510 nm was read with a plate reader. The proliferation rate was calculated according to the Manufacturer's instruction. The IC50 value for each compound was determined from dose-effect relationship using the CompuSyn software (version 1.0.1; CompuSyn, Inc, Paramus, N.J.) (Chou, 2006). Cell proliferating doubling time was monitored over a period of 72 hours.
Next, the effect of combined treatment with DHS and gemcitabine on pancreatic tumor cells was investigated.

The subject of experiment [6] is HCT116 cells. Briefly: Cell-cycle assay. Format: cell-based, human. Conditions: 10 μM. Here is the method:
A cell-cycle assay was conducted to study whether DHS would affect cell-cycle progression.

For experiment [7], the system named is HCT116 cells, U2OS cells, MDA-231/GFP cells, and PANC-1 cells. Put plainly: Cytotoxicity across the four cancer cell lines (SAR summary). The format is cell-based. Here is the method:
as §4
Based on identification of resveratrol as a lead compound in the drug screening assays, the anti-cancer activity of synthetic resveratrol analogs (FIG. 2) was next investigated and compared to resveratrol using HCT116 cells, U2OS cells, MDA-231/GFP cells, and PANC-1 cells.
The structure activity relationship (SAR) of the derivatives of resveratrol were considered.

Experiment [8] concerns PANC-1. Briefly: In vitro cytotoxicity (SRB assay), PANC-1. The format is cell-based. Particulars: Homo sapiens, 72 hours. As for the experimental part:
as §2, §3

Experiment [9] relates to MDA-231/GFP. Put plainly: In vitro cytotoxicity (SRB assay), MDA-231/GFP. Format: cell-based. Conditions: Homo sapiens, MDA-MB-231, 72 hours. As for the experimental part:
as §2, §3

Experiment [10] concerns phosphorylated histone 2AX. Briefly: γH2AX immunostaining. Format: cell-based, human. Conditions: HCT116 cells, 10 μM for 12 hours.
Experiment [11] relates to phosphor-Chk1 (pChk1, Serine 345). Briefly: DNA damage markers by Western blot. Format: cell-based, human. Particulars: HCT116 cells, 10 μM for 20 minutes. Here is the method:
as §1
To investigate whether inhibition of DNA replication by DHS can trigger DNA damage, the DNA damage markers phosphor-Chk1 (pChk1, Serine 345) and phosphor-Chk2 (pChk2, Threonine 68) were analyzed in DHS-treated HCT116 cells. […] A comet assay was next used to test if DNA double strand breaks are induced by DHS.

The target in experiment [12] is purified RRM2 protein (Homo sapiens, UniProt P31350). Briefly: In vitro thermal shift assay with purified protein. The format is binding. Conditions: purified RRM1 and RRM2 mixed, incubated 4 hours. As for the experimental part: To investigate binding of DHS to RRM1 and RRM2, a thermal shift assay was performed in HCT116 cells treated with DMSO (vehicle), resveratrol, DHS, gemcitabine, or hydroxyurea (Hu). Gemcitabine is known to bind RRM1 (Plunkett et al., 1995 and Chen et al., 2011), and Hu has been reported to bind RRM2 (Thelander et al., 1985). […] DHS stabilized RRM2 protein in a dose responsive manner (5 to 20 μM DHS; FIG. 11A). To rule out nonspecific effects of DHS on RRM2, an in vitro thermal shift assay was conducted. Purified RRM1 and RRM2 were mixed and then incubated with DHS or Hu for 4 hours before performing the assay.
purified RRM2 protein, sequence (P31350 whole entry, species assumed): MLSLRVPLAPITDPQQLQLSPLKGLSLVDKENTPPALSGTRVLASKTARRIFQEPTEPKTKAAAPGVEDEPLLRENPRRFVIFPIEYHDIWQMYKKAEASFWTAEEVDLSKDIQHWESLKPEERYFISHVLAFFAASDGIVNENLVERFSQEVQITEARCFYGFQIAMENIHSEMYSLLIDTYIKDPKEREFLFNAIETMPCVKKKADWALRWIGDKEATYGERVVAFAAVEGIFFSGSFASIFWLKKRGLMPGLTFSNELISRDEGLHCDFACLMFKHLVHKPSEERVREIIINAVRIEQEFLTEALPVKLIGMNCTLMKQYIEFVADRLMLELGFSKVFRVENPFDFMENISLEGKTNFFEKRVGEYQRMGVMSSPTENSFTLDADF

Turning to `Oc1ccc(/C=C/c2ccc(O)cc2)cc1` [DHS, 4,4′-trans-dihydroxystilbene], in [1], the Re-sensitisation to cisplatin result is on record as “re-sensitized the SKOV3/CP7 cells to cisplatin”. Besides, the “Sensitivity to DHS alone” value in [1] was “sensitive to DHS treatment alone”. Moreover, the And-1 protein level entry in [2] is reported as “caused down-regulation of And-1 protein”. The “Cancer cell growth (GI50) compared to resveratrol” value in experiment [3] was “improved effect on suppressing cancer cell growth as compared to resveratrol”. Besides, the half-inhibitory concentration (IC50) in experiment [4] is 1.23 ± 0.73 µM; in experiment [7] (range over four cell lines) it was 2.3 to 22 µM; in experiment [8], 22 ± 6.42 µM; in [9] it was 5.32 ± 3.38 µM. Also, the Resensitisation to gemcitabine result in [5] is given as “resensitized the gemcitabine-resistant pancreatic cancer line, RPK-9, to gemcitabine”. The “Effect on cell-cycle progression” value in experiment [6] was “robust S-phase arrest”. Besides, the “Potency relative to resveratrol according to the IC50 values” in [7] amounted to 10 times. In experiment [10], the “Levels of γH2AX” value is reported as “Increased levels of phosphorylated histone 2AX”. Besides, the “DNA damage (phosphorylated CHK1, pSerine 345)” value in [11] was “more potent than resveratrol and the other analogs”. In addition, the “Stabilisation of purified RRM2 after high temperature incubation” value in experiment [12] is listed as “stabilized purified RRM2 protein”.
